11 molecules from PubChem BioAssay (NCI) can be followed below.

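Where inhibition never reached the appropriate level, the endpoint shown equals the highest concentration tested. Otherwise, values were interpolated linearly from a five-concentration, 48-hour dose response in 96-well plates. At the GI50, growth is halved. TGI is the concentration that stops growth completely.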 A value given as a limit tells only on which side of the number the result lay.

Experiment in all cases: NCI-60 cell line screen, 48 h
For assay [1], the system named is TK-10 renal.
Assay [2] deals with OVCAR-3 ovarian.
Assay [3] has as its system SNB-19 CNS.
Assay [4] has as its system SR leukemia.
Assay [5] relates to UACC-257 melanoma.
In assay [6] the test system is PC-3 prostate.
Assay [7] relates to A549 NSCLC.
Assay [8] deals with SK-MEL-28 melanoma.
In assay [9] the test system is ACHN renal.
In assay [10] the test system is HT29 colon.

For `O=Cc1ncc(-c2ccc(C(F)(F)F)cc2)c(NC2CCCCCC2)n1`, the GI50 in assay [1] was over 10 µM; in [2], over 10 µM; in [3], over 10 µM; in [4] it was 5.7 µM; in assay [5], over 10 µM; in [6], over 10 µM. For the same molecule, the GI50 in assay [7], in assay [8], in assay [9] and in assay [10] was over 10 µM in each case. Moreover, the TGI in assay [1], in assay [2], in assay [3], in assay [4], in assay [5] and in [6] was over 10 µM in each case. In addition, the TGI in [7], in assay [8], in [9] and in [10] was over 10 µM in each case.

In the case of `CN(C)c1cc2c(Nc3ccc4nc(Cc5ccccc5)[nH]c4c3)ncnc2cn1`, the GI50 was 4.9 µM in assay [1]; over 18.3 µM in [2]; over 25 µM in [3]; 8.79 µM in [4]; over 15.3 µM in assay [5]; over 25 µM in assay [6]. In addition, the GI50 was 11.8 µM in assay [7], over 12.4 µM in assay [8], 11.8 µM in assay [9] and 11.9 µM in [10]. Moreover, the TGI in assay [1], in assay [2], in [3], in [4], in assay [5] and in assay [6] was over 25 µM each time. The TGI in [7] is over 25 µM; in [8], over 20 µM; in assay [9] it was over 25 µM; in [10], over 23 µM.

Regarding `COc1cc(C2=Nc3c/c(=C\c4c(O)[nH]c5ccc(Cl)cc45)ccc3=N2)cc(OC)c1OC`, the GI50 in [1] is 5.76 µM; in [2], 3.07 µM; in assay [3] it was 4.55 µM; in assay [4] it was 1.94 µM; in assay [5] it was 1.96 µM; in [6], 2.94 µM. For the same molecule, the GI50 was 2.87 µM in [7], 3.2 µM in [8], 6.67 µM in assay [9] and 2.11 µM in assay [10]. The TGI worked out at 17.4 µM in assay [1]; 11.1 µM in assay [2]; 13.5 µM in assay [3]; 5.05 µM in assay [4]; 4.77 µM in assay [5]; 14.3 µM in [6]. In addition, the TGI in [7] is 10.7 µM; in assay [8], 12.7 µM; in assay [9] it was 24.2 µM; in assay [10] it was 4.5 µM.

For `C[C@H]1O[C@@H](O[C@H]2[C@@H](O)C[C@H](O[C@H]3[C@@H](O)C[C@H](O[C@H]4CC[C@]5(C)C6C[C@@H](O)[C@]7(C)[C@@H](C8=CC(=O)OC8)CC[C@]7(O)C6CC[C@@H]5C4)O[C@@H]3C)O[C@@H]2C)C[C@H](O)[C@@H]1O` (stereo not given in full), the GI50 in [1] was 0.0266 µM; in assay [2] it was 0.0241 µM; in assay [3] it was 0.175 µM; in [4], 0.0552 µM; in [5] it was 0.101 µM; in [6], 0.0573 µM. The GI50 in [7] is 0.0163 µM; in [8] it was 0.104 µM; in assay [9], 0.022 µM; in assay [10], 0.0893 µM. Besides, the TGI came out at 0.213 µM in [1]; 0.0792 µM in assay [2]; 0.678 µM in assay [3]; 0.307 µM in assay [4]; 0.237 µM in assay [5]; 0.783 µM in assay [6]. Moreover, the TGI in assay [7] was found to be 0.0581 µM; in assay [8] it was 0.222 µM; in assay [9] it was 0.115 µM; in [10], 0.293 µM.

Consider `O=C(/C=C\c1cccc([N+](=O)[O-])c1)c1ccccc1`, for which the GI50 in assay [1] is 2.05 µM; in [2], 1.76 µM; in assay [3] it was 6.81 µM; in assay [4], 2.17 µM; in [5] it was 4.85 µM; in assay [6], 2.67 µM. The GI50 in assay [7] is 21 µM; in assay [8] it was 2.17 µM; in assay [9], 1.9 µM; in assay [10], 2.77 µM. Besides, the TGI in assay [1] was 5.32 µM; in assay [2], 3.6 µM; in assay [3] it was 21 µM; in assay [4] it was over 100 µM; in assay [5], 12.4 µM; in assay [6], 11.3 µM. The TGI in [7] was 68.2 µM; in assay [8], 4.6 µM; in assay [9], 3.81 µM; in assay [10], over 100 µM.

In the case of `N#CC(NC12CC3CC(CC(C3)C1)C2)c1ccccc1` (stereo not given), the TGI in assay [1], in assay [2], in assay [3], in assay [4], in assay [5] and in [6] was over 100 µM in each case. Moreover, the TGI in [7], in assay [8], in [9] and in assay [10] was over 100 µM each time.

Turning to `COC(=O)c1c2c(c[n+]([O-])c1C)C(=O)C(NCc1ccccc1)=CC2=O`, the GI50 in [1] is 3.17 µM; in assay [2], 0.256 µM; in assay [3] it was 1.46 µM; in assay [4], 1.29 µM; in [5], 0.257 µM; in [6] it was 0.274 µM. Moreover, the GI50 in [7] was 1.12 µM; in [8], 1.6 µM; in assay [9], 1.02 µM; in assay [10] it was 0.43 µM. Besides, the TGI is 7.07 µM in [1]; 0.796 µM in assay [2]; 2.77 µM in [3]; over 100 µM in [4]; 0.734 µM in assay [5]; 1.91 µM in [6]. The TGI in [7] is 3.61 µM; in [8] it was 3.29 µM; in assay [9], 2.2 µM; in [10], over 20.3 µM.

As for `CCOc1ccc(/C=N/Nc2cc(C)nc3ccc(Cl)cc23)cc1`, the GI50 was 1.91 µM in [1]; 1.93 µM in assay [2]; 2.37 µM in assay [3]; 1.12 µM in assay [4]; 1.81 µM in assay [5]; 1.51 µM in [6]. The GI50 in assay [7] was 2 µM; in [8], 1.78 µM; in [9] it was 1.78 µM; in assay [10], 1.9 µM. The TGI came to 3.37 µM in assay [1]; 3.5 µM in assay [2]; 5.07 µM in [3]; 3.5 µM in [4]; 3.32 µM in assay [5]; 3.14 µM in assay [6]. Moreover, the TGI was determined as 3.72 µM in assay [7], 3.19 µM in assay [8], 3.17 µM in assay [9] and 3.47 µM in assay [10].

Consider `Cc1ccccc1NC(=O)N/C(N)=N/c1nc2ccccc2s1`, for which the GI50 in [1] was 3.78 µM; in assay [2] it was 0.0358 µM; in assay [3], 0.104 µM; in assay [4], 0.0392 µM; in assay [5], over 100 µM; in assay [6] it was 0.059 µM. Further, the GI50 was 0.0871 µM in [7], 3.37 µM in assay [8], 0.0729 µM in [9] and 0.039 µM in assay [10]. The TGI in assay [1] is over 100 µM; in assay [2], 0.267 µM; in assay [3], over 100 µM; in assay [4] it was over 100 µM; in assay [5], over 100 µM; in assay [6] it was over 100 µM. Also, the TGI in [7], in assay [8], in assay [9] and in assay [10] was over 100 µM throughout.

With `COC(=O)C1=C(C(=O)Nc2cccnc2)C2OC1(C(Cc1ccccc1)Oc1ccccc1)C1OC21` (stereo not given), the GI50 in [1] is 1.51 µM; in [2] it was 1.78 µM; in [3], 14.8 µM; in assay [4], 0.918 µM; in assay [5] it was 1.85 µM; in [6], 9.62 µM. For the same molecule, the GI50 is 17.1 µM in assay [7], 1.83 µM in [8], 1.49 µM in assay [9] and 2.73 µM in assay [10]. In addition, the TGI in assay [1] turned out to be 2.85 µM; in assay [2], 3.2 µM; in assay [3], 28.8 µM; in [4], 5.13 µM; in assay [5] it was 3.71 µM; in [6] it was 21.9 µM. The TGI in [7] stood at 31.2 µM; in assay [8], 3.48 µM; in [9], 3 µM; in [10] it was 6.97 µM.

For `Nc1nn(C(=O)Nc2ccc(Cc3ccccc3)cc2)c2ccc(Cl)cc12`, the GI50 in assay [1] is 17.7 µM; in assay [2], 7.14 µM; in [3] it was 18.1 µM; in assay [4] it was 12.6 µM; in assay [5] it was 10.1 µM; in assay [6], 2.87 µM. Moreover, the GI50 in assay [7] is 5.76 µM; in assay [8], 7.91 µM; in [9] it was 0.0646 µM; in assay [10] it was 3.54 µM. The TGI in assay [1] is 50.3 µM; in assay [2], 21.6 µM; in assay [3] it was 51.7 µM; in [4] it was 26.5 µM; in assay [5] it was over 100 µM; in [6], over 66.5 µM. Further, the TGI in assay [7] was over 89.2 µM; in assay [8], over 100 µM; in [9] it was 26.4 µM; in [10], 27.3 µM.
